For this experiment, the target named is T1, NK3 receptor (Cavia porcellus, UniProt P30098).
T1 construct: contractile effects of the selective NK3 receptor agonist senktide in the guinea-pig ileum; from tissue; host or cells: guinea-pig ileum
T1 sequence (P30098 1-440): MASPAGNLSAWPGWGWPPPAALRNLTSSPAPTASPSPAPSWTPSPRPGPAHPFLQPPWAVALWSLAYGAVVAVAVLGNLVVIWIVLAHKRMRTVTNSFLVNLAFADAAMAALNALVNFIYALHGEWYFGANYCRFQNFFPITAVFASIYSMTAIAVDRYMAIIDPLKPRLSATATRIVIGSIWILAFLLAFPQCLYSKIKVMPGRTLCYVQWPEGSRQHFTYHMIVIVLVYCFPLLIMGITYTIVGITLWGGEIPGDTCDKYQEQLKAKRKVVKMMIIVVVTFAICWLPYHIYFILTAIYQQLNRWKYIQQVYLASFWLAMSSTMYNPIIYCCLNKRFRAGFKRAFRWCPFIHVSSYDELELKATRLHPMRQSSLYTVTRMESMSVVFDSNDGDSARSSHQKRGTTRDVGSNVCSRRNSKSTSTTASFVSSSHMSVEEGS
The experiment is described as follows: NK3 receptor antagonist activity in vitro: antagonism of contractile effects of senktide in guinea-pig ileum. The note with it: antagonism of contractile effects of the selective NK3 receptor agonist senktide, read-out: pIC50 for NK3 activity (converted). From the text:
The compounds of the formula (I) and their salts can be tested for NK3 receptor antagonist activity, in vitro, by testing their ability to antagonise the contractile effects of the selective NK3 receptor agonist senktide in the guinea-pig ileum using the method of Maggi et al, Br. J. Pharmacol., 101, 996-1000 (1 990).

Turning to `NS(=O)(=O)N1CCN(C2CN(CCCC3(c4ccc(Cl)c(Cl)c4)CCCN(C(=O)c4ccccc4)C3)C2)CC1` (stereo not shown) [Example 2], the IC50 was 3.98 nM.

(Values after patent US6242438A, “3-Azetidinylalkylpiperidines or -pyrrolidines as tachykinin antagonists” (Pfizer Inc., priority 1996, dated 2001).)
